Test results reported in patent US7741520B2, “Sulfonanilide analogs as selective aromatase modulators (SAMs)” (The Ohio State University Research Foundation, priority 2006, dated 2010).

System: CYP19 mRNA expression in SK-BR-3 cells
Experiment: CYP19 mRNA expression by real-time RT-PCR in SK-BR-3 cells
Type: cell-based, human
Conditions: 5 μM, 24 h (FIG. 14)
Method: (§1) RNA Extraction. Total RNA was isolated using the TRIzol reagent according to the manufacturer's protocol. Total RNA pellets were dissolved in DNase- and RNase-free water and quantitated using a spectrophotometer. The quality of RNA samples was determined by electrophoresis through agarose gels and staining with ethidium bromide; the 18S and 28S rRNA bands were visualized under ultraviolet light.
(§2) cDNA Synthesis. Isolated total RNA (2 μg) was treated with DNase I Amplification grade, according to the recommended protocol to eliminate any DNA before reverse transcription. Treated total RNA was denatured at 65° C. for 5 min in the presence of 2.5 ng/μL random hexamers and 0.5 mM dNTP mix. The samples were snap-cooled on ice and centrifuged briefly. Complementary DNA (cDNA) was synthesized using Superscript II reverse transcriptase according to the recommended protocol. Briefly, the reactions were conducted in the presence of 1× First-Strand Buffer and 20 mM DTT at 42° C. for 50 min and consequently inactivated at 70° C. for 15 min. The cDNA generated was used as a template in realtime PCR reactions.
Real-Time PCR. Real-time PCR was performed using the Opticon 2 system from MJ Research (Waltham, Mass.). For the CYP19 total gene the PCR reaction mixture consisted of Taqman Universal PCR Master Mix (Applied Biosystems), 600 nM of CYP19 primer (sense: 5′-TGTCTCTTTGTTCTTCATGCTATTTCTC-3′ (SEQ ID NO: 1); antisense: 5′-TCACCAATAACAGTCTGGATTTCC-3′) (SEQ ID NO: 2); 250 nM Taqman probe (6FAM 5′-TGCAAAGCACCCTAATGTTGAAGAGGCAAT-3′TAMRA) (SEQ ID NO: 3) (Invitrogen), 18S rRNA (Applied Biosystems, Foster City, Calif.), and 2.0 μL of each RT sample in a final volume of 20 μL. The Taqman probe was designed to anneal to a specific sequence of the aromatase gene between the forward and the reverse primers. Cycling conditions were 50° C. for 2 mm and 95° C. for 10 mm, followed by 50 cycles at 95° C. for 15 s and 60° C. for 1 mm.
as §1, with “extraction.” for “Extraction.”, “DNase,” for “DNase- and”
as §2, with “synthesis.” for “Synthesis.”, “real-time” for “realtime”
Real-time PCR. Real-time PCR was performed using the Opticon™ 2 system from MJ Research (Waltham, Mass.). For the CYP19 total gene the PCR reaction mixture consisted of Taqman® Universal PCR Master Mix (Applied Biosystems), 600 nM of CYP19 primer (sense: 5′-TGTCTCTTTGTTCTTCATGCTATTTCTC-3′ (SEQ ID NO: 1); antisense: 5′-TCACCAATAACAGTCTGGATTTCC-3′) (SEQ ID NO: 2); 250 nM Taqman probe (6FAM 5′-TGCAAAGCACCCTAATGTTGAAGAGGCAAT-3′TAMRA) (SEQ ID NO: 3) (Invitrogen), and 2.0 μL of each cDNA sample in a final volume of 20 μL. […]

Compound	CYP19 gene expression
CN(c1ccc([N+](=O)[O-])cc1OCc1ccccc1)S(C)(=O)=O [Compound 26f, N-methyl-N-(2-benzyloxy-4-nitrophenyl) methanesulfonamide]	significantly decreased CYP19 gene expression
CN(c1ccc([N+](=O)[O-])cc1OCc1ccc([N+](=O)[O-])cc1)S(C)(=O)=O [Compound 27c, N-methyl-N-[2-(4′-nitrobenzyloxy)-4-nitrophenyl]methanesulfonamide]	significantly decreased CYP19 gene expression
CN(c1ccc([N+](=O)[O-])cc1OCc1ccc2ccccc2c1)S(C)(=O)=O [Compound 28c, N-methyl-N-[2-(β-naphthylmethoxy) 4-nitrophenyl]methanesulfonamide]	significantly decreased CYP19 gene expression
CN(c1ccc([N+](=O)[O-])cc1OCc1ccccc1-c1ccccc1)S(C)(=O)=O [Compound 29c, N-methyl-N-[2-(2′-phenylbenzyloxy)-4-nitrophenyl]methanesulfonamide]	significantly decreased CYP19 gene expression
CN(c1ccc([N+](=O)[O-])cc1OCc1ccc(F)cc1)S(C)(=O)=O [Compound 33c, N-methyl-N-[2-(4′-fluorobenzyloxy)-4-nitrophenyl]methanesulfonamide]	significantly decreased CYP19 gene expression
